Experimental data reported in the supplement of paper PMC4862054.

tested on: BT-549; experiment: normalised response (% of control), CellTiter-Glo; higher = more viable cells (100 = DMSO, 0 = benzethonium chloride kill control); conditions: incubation time: 72 h
Method in brief: (§1)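 Normalised signals at single concentrations make up the values. They come from breast cancer cell lines seeded (20 µl suspension) into 384-well plates with compound at 5 concentrations in 10-fold steps over a compound-specific 10,000-fold range, incubated 72 h, and read for CellTox Green fluorescence then CellTiter-Glo luminescence. Each plate was normalised to 0.1 % DMSO (100) and a positive kill control (0).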

Compared with `Nc1nc(F)nc2c1ncn2[C@@H]1O[C@H](CO)[C@@H](O)[C@@H]1O` [Fludarabine] (1 nM), `Nc1ncn([C@H]2C[C@H](O)[C@@H](CO)O2)c(=O)n1` [Decitabine] (1 nM) is lower in normalised response: 101% for the first, 90% for the second.

`CC[C@@H]1C(=O)N(C)c2cnc(Nc3ccc(C(=O)NC4CCN(C)CC4)cc3OC)nc2N1C1CCCC1` [BI 2536] (0.1 nM) and `Cc1cnc(NC(=O)Nc2cc(Br)c(C)cc2OC[C@@H]2CNCCO2)cn1` [Rabusertib] (0.1 nM) are the same in normalised response: 103% for the first, 103% for the second.

First: CC1=C(/C=C/C(C)=C/C=C/C(C)=C/C(=O)O)C(C)(C)CCC1 [Tretinoin] (1 nM)
Second: O=C(O)C1(C(=O)O)CCC1.[NH2-].[NH2-].[Pt+2] [Carboplatin] (1 nM)
The normalised response of the first is higher: 104% for the first, 99% for the second.

First: COc1cc([C@@H]2c3cc4c(cc3[C@@H](O[C@@H]3O[C@@H]5CO[C@@H](c6cccs6)O[C@H]5[C@H](O)[C@H]3O)[C@H]3COC(=O)[C@H]23)OCO4)cc(OC)c1O [Teniposide] (1 nM)
Second: CC(=O)Nc1cccc(-n2c(=O)n(C3CC3)c(=O)c3c(Nc4ccc(I)cc4F)n(C)c(=O)c(C)c32)c1 [Trametinib] (0.025 nM)
The normalised response of the first is higher: 103% for the first, 94.9% for the second.

Compared with `CCN(CC)CCCC(C)Nc1c2ccc(Cl)cc2nc2ccc(OC)cc12` (configuration not stated) [Mepacrine] (50 nM), `CNC(=O)c1cc(Oc2ccc(NC(=O)Nc3cc(C(C)(C)C)nn3-c3ccc4ncccc4c3)c(F)c2)ccn1` [Rebastinib] (1 nM) is lower in normalised response: 104% for the first, 93.8% for the second.

Compared with `O=C(/C=C/c1cccnc1)NCCCCC1CCN(C(=O)c2ccccc2)CC1` [Daporinad] (1 nM), `O=C(Cc1ccc(-c2ccc(OCCN3CCOCC3)cc2)cn1)NCc1ccccc1` [KX2-391] (1 nM) is higher in normalised response: 98% for the first, 105% for the second.

Going from `Nc1nc2[nH]cc(CCc3ccc(C(=O)N[C@@H](CCC(=O)O)C(=O)O)cc3)c2c(=O)[nH]1` [Pemetrexed] (10 nM) to `CC[C@H](Nc1ncnc2[nH]cnc12)c1nc2cccc(F)c2c(=O)n1-c1ccccc1` [GS-1101] (10 nM), the normalised response falls from 108% to 92.7%.

First: CCc1cncnc1N1CCN(Cc2nc3ccc(C(F)(F)F)cc3[nH]2)CC1 (1 nM)
Second: O=C(Cc1ccc(-c2ccc(OCCN3CCOCC3)cc2)cn1)NCc1ccccc1 [KX2-391] (10 nM)
The normalised response of the first is higher: 108% for the first, 102% for the second.

First: O=C(/C=C/c1cccnc1)NCCCCC1CCN(C(=O)c2ccccc2)CC1 [Daporinad] (0.1 nM)
Second: C[C@H]1C[C@@H]2[C@H]([C@@H](O)C[C@@]3(C)[C@H]2CC[C@]3(O)C(=O)CO)[C@@]2(C)C=CC(=O)C=C12 [Methylprednisolone] (1 nM)
The normalised response of the first is lower: 98.4% for the first, 100% for the second.

First: O=C(O)C(=O)O.[NH-][C@@H]1CCCC[C@H]1[NH-].[Pt+2] [Oxaliplatin] (1 nM)
Second: CC[C@H](C)C(=O)O[C@H]1C[C@H](O)C=C2C=C[C@H](C)[C@H](CC[C@@H](O)C[C@@H](O)CC(=O)O)[C@H]21 [Pravastatin] (10 nM)
The normalised response of the first is higher: 103% for the first, 92.2% for the second.

tested on: Hs578T; experiment: as above; conditions: incubation time: 72 h
Method in brief: as §1

Going from `Nc1nc(F)nc2c1ncn2[C@@H]1O[C@H](CO)[C@@H](O)[C@@H]1O` [Fludarabine] (1 nM) to `Nc1ncn([C@H]2C[C@H](O)[C@@H](CO)O2)c(=O)n1` [Decitabine] (1 nM), the normalised response falls from 110% to 94.3%.

Compared with `CC[C@@H]1C(=O)N(C)c2cnc(Nc3ccc(C(=O)NC4CCN(C)CC4)cc3OC)nc2N1C1CCCC1` [BI 2536] (0.1 nM), `Cc1cnc(NC(=O)Nc2cc(Br)c(C)cc2OC[C@@H]2CNCCO2)cn1` [Rabusertib] (0.1 nM) is higher in normalised response: 97.4% for the first, 102% for the second.

First: CC1=C(/C=C/C(C)=C/C=C/C(C)=C/C(=O)O)C(C)(C)CCC1 [Tretinoin] (1 nM)
Second: O=C(O)C1(C(=O)O)CCC1.[NH2-].[NH2-].[Pt+2] [Carboplatin] (1 nM)
The normalised response of the first is higher: 102% for the first, 101% for the second.

Compared with `COc1cc([C@@H]2c3cc4c(cc3[C@@H](O[C@@H]3O[C@@H]5CO[C@@H](c6cccs6)O[C@H]5[C@H](O)[C@H]3O)[C@H]3COC(=O)[C@H]23)OCO4)cc(OC)c1O` [Teniposide] (1 nM), `CC(=O)Nc1cccc(-n2c(=O)n(C3CC3)c(=O)c3c(Nc4ccc(I)cc4F)n(C)c(=O)c(C)c32)c1` [Trametinib] (0.025 nM) is lower in normalised response: 106% for the first, 99.5% for the second.

Compared with `CCN(CC)CCCC(C)Nc1c2ccc(Cl)cc2nc2ccc(OC)cc12` (configuration not stated) [Mepacrine] (50 nM), `CNC(=O)c1cc(Oc2ccc(NC(=O)Nc3cc(C(C)(C)C)nn3-c3ccc4ncccc4c3)c(F)c2)ccn1` [Rebastinib] (1 nM) is higher in normalised response: 99.1% for the first, 103% for the second.

Going from `O=C(/C=C/c1cccnc1)NCCCCC1CCN(C(=O)c2ccccc2)CC1` [Daporinad] (1 nM) to `O=C(Cc1ccc(-c2ccc(OCCN3CCOCC3)cc2)cn1)NCc1ccccc1` [KX2-391] (1 nM), the normalised response rises from 97.1% to 103%.

Compared with `Nc1nc2[nH]cc(CCc3ccc(C(=O)N[C@@H](CCC(=O)O)C(=O)O)cc3)c2c(=O)[nH]1` [Pemetrexed] (10 nM), `CC[C@H](Nc1ncnc2[nH]cnc12)c1nc2cccc(F)c2c(=O)n1-c1ccccc1` [GS-1101] (10 nM) is lower in normalised response: 98.5% for the first, 97.4% for the second.

Going from `CCc1cncnc1N1CCN(Cc2nc3ccc(C(F)(F)F)cc3[nH]2)CC1` (1 nM) to `O=C(Cc1ccc(-c2ccc(OCCN3CCOCC3)cc2)cn1)NCc1ccccc1` [KX2-391] (10 nM), the normalised response rises from 101% to 103%.

Compared with `O=C(/C=C/c1cccnc1)NCCCCC1CCN(C(=O)c2ccccc2)CC1` [Daporinad] (0.1 nM), `C[C@H]1C[C@@H]2[C@H]([C@@H](O)C[C@@]3(C)[C@H]2CC[C@]3(O)C(=O)CO)[C@@]2(C)C=CC(=O)C=C12` [Methylprednisolone] (1 nM) is higher in normalised response: 96.3% for the first, 103% for the second.

First: O=C(O)C(=O)O.[NH-][C@@H]1CCCC[C@H]1[NH-].[Pt+2] [Oxaliplatin] (1 nM)
Second: CC[C@H](C)C(=O)O[C@H]1C[C@H](O)C=C2C=C[C@H](C)[C@H](CC[C@@H](O)C[C@@H](O)CC(=O)O)[C@H]21 [Pravastatin] (10 nM)
The normalised response of the first is lower: 98.9% for the first, 100% for the second.

tested on: BT-474; experiment: as above; conditions: incubation time: 72 h
Method in brief: as §1

First: Nc1nc(F)nc2c1ncn2[C@@H]1O[C@H](CO)[C@@H](O)[C@@H]1O [Fludarabine] (1 nM)
Second: Nc1ncn([C@H]2C[C@H](O)[C@@H](CO)O2)c(=O)n1 [Decitabine] (1 nM)
The normalised response of the first is higher: 111% for the first, 99.1% for the second.

Going from `CC[C@@H]1C(=O)N(C)c2cnc(Nc3ccc(C(=O)NC4CCN(C)CC4)cc3OC)nc2N1C1CCCC1` [BI 2536] (0.1 nM) to `O=C(/C=C/c1cccnc1)NCCCCC1CCN(C(=O)c2ccccc2)CC1` [Daporinad] (1 nM), the normalised response rises from 105% to 106%.

First: CC1=C(/C=C/C(C)=C/C=C/C(C)=C/C(=O)O)C(C)(C)CCC1 [Tretinoin] (1 nM)
Second: COc1cc([C@@H]2c3cc4c(cc3[C@@H](O[C@@H]3O[C@@H]5CO[C@@H](c6cccs6)O[C@H]5[C@H](O)[C@H]3O)[C@H]3COC(=O)[C@H]23)OCO4)cc(OC)c1O [Teniposide] (1 nM)
The normalised response of the first is higher: 102% for the first, 99.3% for the second.

`CCN(CC)CCCC(C)Nc1c2ccc(Cl)cc2nc2ccc(OC)cc12` (configuration not stated) [Mepacrine] (50 nM) was tested, and the normalised response was 102%.
